Source: ChEMBL document CHEMBL1201862, “PubChem BioAssay data set” (2004)
Values belong to the molecule of their own block, whether it stands above or below them. Activity calls are given as the source filed them.

Assays:
[1] = biological target: Potassium voltage-gated channel subfamily KQT member 2 (Rattus norvegicus, UniProt O88943); assay: blockers of KCNQ2 channel current – cell-based, automated electrophysiology, set II, rat KCNQ2, dose response (AID 588637); type: functional
[2] = biological target: Tyrosine-protein phosphatase non-receptor type 11 (Homo sapiens, UniProt Q06124); assay: PTPN11 enzyme inhibitors – biochemical, selectivity assay for STEP inhibitor project, dose response (AID 602367); type: functional; conditions: read-out: IC50_Mean
[3] = biological target: Tyrosine-protein phosphatase non-receptor type 5 (Homo sapiens, UniProt P54829); assay: PTPN5 enzyme inhibition – biochemical, fluorescence intensity, uHTS hits, confirmation (AID 602372); type: functional; conditions: read-out: IC50_Mean
[4] = biological target: Dual specificity protein phosphatase 3 (Homo sapiens, UniProt P51452); assay: VHR phosphatase inhibition, dose response, selectivity assay for STEP inhibitor project, biochemical (AID 602374); type: functional; conditions: read-out: IC50_Mean
[5] = NIH-3T3 fibroblast cytotoxicity, dose response, cytotoxicity control, cell-based, fluorescence, Alamar Blue, secondary assay (AID 2327); type: functional;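 also: NIH-3T3 mouse fibroblasts cultured with fluconazole at 8 µg/mL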
[6] = fluconazole-exposed Candida albicans growth modulators – fluorescence, retest, confirmation (AID 2467); type: functional, cell-based
[7] = Trypanosoma cruzi growth suppression in host cells – NIH3T3 host cells, beta-gal luminescence, confirmation (AID 2044); type: functional, cell-based;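 also: intracellular parasites grown in NIH/3T3 mouse fibroblasts as host cells; luminescent beta-galactosidase reporter signal from transgenic T. cruzi replicating inside host cells; inhibitors lower the luminescence signal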
[8] = NIH3T3 cell viability loss – ATP luminescence, mouse fibroblasts, counter-screen, dose response (AID 2010); type: functional, cell-based;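 also: cells exposed to compound for about 90 hours before reading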
[9] = biological target: T1, Short transient receptor potential channel 4 (Mus musculus, UniProt Q9QUQ5); assay: block of DAMGO-driven TRPC4 calcium entry – cell-based, HEK293 TRPC4/mu-opioid, Fluo-4 calcium, dose response (AID 434942); type: functional;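 also: potency of inhibitors blocking the TRPC4 calcium response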
T1 sequence (Q9QUQ5 whole entry): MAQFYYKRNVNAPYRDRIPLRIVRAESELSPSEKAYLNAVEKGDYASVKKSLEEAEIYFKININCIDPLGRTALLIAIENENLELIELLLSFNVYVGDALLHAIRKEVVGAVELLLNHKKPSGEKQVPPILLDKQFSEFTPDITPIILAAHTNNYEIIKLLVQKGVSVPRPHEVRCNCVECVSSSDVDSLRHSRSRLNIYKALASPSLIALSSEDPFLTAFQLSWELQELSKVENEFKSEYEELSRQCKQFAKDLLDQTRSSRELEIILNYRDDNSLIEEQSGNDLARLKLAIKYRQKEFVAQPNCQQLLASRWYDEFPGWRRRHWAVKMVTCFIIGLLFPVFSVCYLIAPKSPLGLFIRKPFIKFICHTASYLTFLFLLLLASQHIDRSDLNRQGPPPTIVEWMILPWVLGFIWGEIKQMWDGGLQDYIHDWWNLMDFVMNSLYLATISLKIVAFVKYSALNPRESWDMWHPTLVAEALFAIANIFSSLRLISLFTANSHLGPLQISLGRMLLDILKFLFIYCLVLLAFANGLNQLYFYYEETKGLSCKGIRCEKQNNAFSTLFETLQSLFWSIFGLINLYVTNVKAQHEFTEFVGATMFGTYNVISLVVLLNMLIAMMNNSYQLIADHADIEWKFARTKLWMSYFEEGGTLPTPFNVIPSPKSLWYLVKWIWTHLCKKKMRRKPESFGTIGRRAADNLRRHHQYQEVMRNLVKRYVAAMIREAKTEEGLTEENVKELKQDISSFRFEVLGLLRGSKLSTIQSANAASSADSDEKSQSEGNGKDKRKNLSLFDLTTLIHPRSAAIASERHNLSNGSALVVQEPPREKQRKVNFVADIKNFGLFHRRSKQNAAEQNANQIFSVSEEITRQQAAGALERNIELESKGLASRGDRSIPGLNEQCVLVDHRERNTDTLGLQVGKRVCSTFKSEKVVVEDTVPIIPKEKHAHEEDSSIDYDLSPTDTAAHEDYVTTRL

[10] = biological target: T2, Ubiquitin-conjugating enzyme E2 N (Homo sapiens, UniProt P61088); type: functional
T2 sequence (P61088 whole entry): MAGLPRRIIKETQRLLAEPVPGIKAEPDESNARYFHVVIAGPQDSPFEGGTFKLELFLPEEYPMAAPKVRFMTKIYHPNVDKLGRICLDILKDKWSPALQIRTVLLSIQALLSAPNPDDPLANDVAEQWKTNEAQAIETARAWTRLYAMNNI

[11] = biological target: Benomyl/methotrexate resistance protein (Candida albicans, UniProt P28873); assay: Candida albicans Mdr1 pump inhibition curves – singleplex, Cherry Pick1 hits, dose response (AID 588608); type: functional
[12] = tested on: Streptococcus sp. 'group A'; assay: Streptococcus pyogenes SK(-)GAS viability under kanamycin – luminescence, BacTiterGlo, confirmation, counter-screen for streptokinase expression inhibitor project, dose response (AID 1900); type: functional, organism-based
[13] = tested on: Streptococcus; assay: GAS UMAA2166 growth inhibition – luminescence, BacTiterGlo, counter-screen for streptokinase expression inhibitor project, dose response (AID 1915); type: functional, organism-based;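 also: potency for reduction of bacterial viability or growth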
[14] = biological target: Bcl-2-related protein A1 (Mus musculus, UniProt Q07440); type: functional;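 also: confirmatory dose–response counterscreen on Bfl-1, used to check hits from a UBC13 polyubiquitin inhibitor campaign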
[15] = biological target: T2, Ubiquitin-conjugating enzyme E2 N; type: functional; remark: listed apart in the source
[16] = cytotoxicity toward MDA-MB-231 breast cancer cells – cell-based, CellTiter-Glo luminescence, cherry-pick, cytotoxicity control for RAD54 inhibitor project, dose response (AID 651692); type: functional
[17] = biological target: T3, DNA repair and recombination protein RAD54-like (Homo sapiens, UniProt Q92698); assay: RAD54 Holliday junction migration blockers – biochemical, fluorescence, cherry-picked samples, dose series, confirmation (AID 651657); type: functional
T3 sequence (Q92698 whole entry): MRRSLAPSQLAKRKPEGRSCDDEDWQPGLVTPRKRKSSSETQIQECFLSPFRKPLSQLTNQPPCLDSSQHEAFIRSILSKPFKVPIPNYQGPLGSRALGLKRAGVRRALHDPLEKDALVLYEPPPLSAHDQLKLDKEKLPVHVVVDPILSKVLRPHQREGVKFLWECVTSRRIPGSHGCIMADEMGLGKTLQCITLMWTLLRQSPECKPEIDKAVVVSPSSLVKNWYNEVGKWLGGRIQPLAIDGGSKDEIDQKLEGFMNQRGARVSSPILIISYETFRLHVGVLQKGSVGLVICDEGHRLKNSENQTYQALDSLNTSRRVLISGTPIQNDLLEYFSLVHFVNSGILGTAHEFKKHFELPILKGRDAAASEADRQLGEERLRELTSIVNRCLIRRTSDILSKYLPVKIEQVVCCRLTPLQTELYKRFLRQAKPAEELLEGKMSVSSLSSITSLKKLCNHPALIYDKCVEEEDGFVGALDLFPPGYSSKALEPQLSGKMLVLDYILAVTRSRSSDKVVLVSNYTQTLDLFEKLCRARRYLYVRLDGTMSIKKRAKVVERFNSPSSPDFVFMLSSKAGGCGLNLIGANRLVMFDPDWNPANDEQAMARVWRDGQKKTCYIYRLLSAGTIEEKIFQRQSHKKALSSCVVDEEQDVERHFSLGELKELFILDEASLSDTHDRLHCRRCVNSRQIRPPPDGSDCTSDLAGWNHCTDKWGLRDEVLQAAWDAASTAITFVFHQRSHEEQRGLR

[18] = Fluorescence-based cell-based high throughput dose response assay for inhibitors of the interaction of nucleotide-binding oligomerization domain containing 2 (NOD2) and the receptor-interacting serine-threonine kinase 2 (RIPK2).; type: functional; conditions: Homo sapiens
[19] = biological target: T4, Carboxy-terminal domain RNA polymerase II polypeptide A small phosphatase 1 (Homo sapiens, UniProt Q9GZU7); assay: CTDSP1 inhibitors, concentration-response, biochemical, absorbance readout, ultra-high-throughput screen actives (AID 540297); type: functional
T4 sequence (Q9GZU7 whole entry): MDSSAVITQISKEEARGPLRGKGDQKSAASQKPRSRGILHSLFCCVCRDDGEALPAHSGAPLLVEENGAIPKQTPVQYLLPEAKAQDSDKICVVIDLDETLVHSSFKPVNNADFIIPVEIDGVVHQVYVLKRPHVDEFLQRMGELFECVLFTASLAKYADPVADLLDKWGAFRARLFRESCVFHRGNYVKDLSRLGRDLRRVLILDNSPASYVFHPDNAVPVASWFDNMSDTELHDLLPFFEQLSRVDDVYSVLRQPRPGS

[20] = biological target: T5, Low molecular weight phosphotyrosine protein phosphatase (Homo sapiens, UniProt P24666); type: functional; conditions: read-out: IC50_Mean
[21] = biological target: T5, Low molecular weight phosphotyrosine protein phosphatase; type: functional; conditions: read-out: IC50_Mean; remark: listed apart in the source
[22] = biological target: T6, Tyrosine-protein phosphatase non-receptor type 22 (Homo sapiens, UniProt Q9Y2R2); assay: PTPN22 enzyme inhibitors – biochemical, fluorescence, LYP catalytic domain, selectivity assay for LMPTP inhibitor project, dose response (AID 652006); type: functional; conditions: read-out: IC50_Mean
T6 sequence (Q9Y2R2 whole entry): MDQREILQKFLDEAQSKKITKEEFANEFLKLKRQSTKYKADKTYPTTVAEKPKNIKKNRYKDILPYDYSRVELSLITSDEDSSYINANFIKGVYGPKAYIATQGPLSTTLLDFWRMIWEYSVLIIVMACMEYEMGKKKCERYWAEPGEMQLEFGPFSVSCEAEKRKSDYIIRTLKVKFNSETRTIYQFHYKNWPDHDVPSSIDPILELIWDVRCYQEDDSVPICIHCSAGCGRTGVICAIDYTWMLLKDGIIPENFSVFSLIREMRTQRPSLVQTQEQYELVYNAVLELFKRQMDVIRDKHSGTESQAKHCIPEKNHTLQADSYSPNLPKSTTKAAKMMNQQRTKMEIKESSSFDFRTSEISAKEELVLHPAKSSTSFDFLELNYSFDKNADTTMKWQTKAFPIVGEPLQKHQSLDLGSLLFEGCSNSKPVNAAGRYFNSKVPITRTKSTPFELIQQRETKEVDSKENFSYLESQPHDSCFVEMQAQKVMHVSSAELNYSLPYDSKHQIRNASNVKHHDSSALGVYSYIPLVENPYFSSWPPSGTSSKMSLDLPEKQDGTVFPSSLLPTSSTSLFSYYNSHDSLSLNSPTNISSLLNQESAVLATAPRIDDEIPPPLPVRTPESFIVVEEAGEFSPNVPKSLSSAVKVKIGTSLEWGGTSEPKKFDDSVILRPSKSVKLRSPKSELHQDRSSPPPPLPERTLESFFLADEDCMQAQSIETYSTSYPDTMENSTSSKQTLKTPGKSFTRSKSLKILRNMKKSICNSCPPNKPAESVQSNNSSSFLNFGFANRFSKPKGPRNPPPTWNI

T5 sequence (P24666 whole entry): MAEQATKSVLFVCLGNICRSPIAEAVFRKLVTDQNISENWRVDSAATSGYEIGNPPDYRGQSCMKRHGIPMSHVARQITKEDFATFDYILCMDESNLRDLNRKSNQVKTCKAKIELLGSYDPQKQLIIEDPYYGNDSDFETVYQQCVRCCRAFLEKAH
Chain of Potassium voltage-gated channel subfamily KQT member 2 (O88943 whole entry): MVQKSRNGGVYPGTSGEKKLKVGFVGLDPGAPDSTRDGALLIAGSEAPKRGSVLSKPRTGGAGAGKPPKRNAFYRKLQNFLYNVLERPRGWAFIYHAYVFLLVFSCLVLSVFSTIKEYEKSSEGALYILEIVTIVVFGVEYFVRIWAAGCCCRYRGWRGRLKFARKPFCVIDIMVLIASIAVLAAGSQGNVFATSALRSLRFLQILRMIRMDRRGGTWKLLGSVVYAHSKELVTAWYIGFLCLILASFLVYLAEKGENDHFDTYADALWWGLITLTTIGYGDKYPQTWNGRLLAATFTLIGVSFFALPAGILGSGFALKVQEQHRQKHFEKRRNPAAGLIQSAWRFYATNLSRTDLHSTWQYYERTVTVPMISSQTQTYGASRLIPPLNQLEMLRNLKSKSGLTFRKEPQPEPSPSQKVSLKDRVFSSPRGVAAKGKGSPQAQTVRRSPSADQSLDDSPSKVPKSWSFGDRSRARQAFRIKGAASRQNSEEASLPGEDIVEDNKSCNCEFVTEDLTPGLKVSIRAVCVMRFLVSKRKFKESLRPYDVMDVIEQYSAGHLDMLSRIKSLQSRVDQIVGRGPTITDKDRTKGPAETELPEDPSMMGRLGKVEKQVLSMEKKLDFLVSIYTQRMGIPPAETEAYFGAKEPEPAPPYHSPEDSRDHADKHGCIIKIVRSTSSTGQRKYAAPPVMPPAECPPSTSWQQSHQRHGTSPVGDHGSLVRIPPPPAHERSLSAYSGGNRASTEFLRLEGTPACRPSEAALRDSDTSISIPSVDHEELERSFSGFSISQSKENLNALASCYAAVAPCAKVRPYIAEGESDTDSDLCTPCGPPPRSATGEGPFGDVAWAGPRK
Chain of Dual specificity protein phosphatase 3 (P51452 whole entry): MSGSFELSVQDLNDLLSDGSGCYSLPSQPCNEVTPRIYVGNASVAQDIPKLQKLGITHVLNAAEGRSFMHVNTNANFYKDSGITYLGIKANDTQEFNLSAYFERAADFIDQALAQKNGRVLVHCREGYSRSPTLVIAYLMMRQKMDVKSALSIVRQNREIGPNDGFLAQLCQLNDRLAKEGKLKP
Chain of Tyrosine-protein phosphatase non-receptor type 5 (P54829 whole entry): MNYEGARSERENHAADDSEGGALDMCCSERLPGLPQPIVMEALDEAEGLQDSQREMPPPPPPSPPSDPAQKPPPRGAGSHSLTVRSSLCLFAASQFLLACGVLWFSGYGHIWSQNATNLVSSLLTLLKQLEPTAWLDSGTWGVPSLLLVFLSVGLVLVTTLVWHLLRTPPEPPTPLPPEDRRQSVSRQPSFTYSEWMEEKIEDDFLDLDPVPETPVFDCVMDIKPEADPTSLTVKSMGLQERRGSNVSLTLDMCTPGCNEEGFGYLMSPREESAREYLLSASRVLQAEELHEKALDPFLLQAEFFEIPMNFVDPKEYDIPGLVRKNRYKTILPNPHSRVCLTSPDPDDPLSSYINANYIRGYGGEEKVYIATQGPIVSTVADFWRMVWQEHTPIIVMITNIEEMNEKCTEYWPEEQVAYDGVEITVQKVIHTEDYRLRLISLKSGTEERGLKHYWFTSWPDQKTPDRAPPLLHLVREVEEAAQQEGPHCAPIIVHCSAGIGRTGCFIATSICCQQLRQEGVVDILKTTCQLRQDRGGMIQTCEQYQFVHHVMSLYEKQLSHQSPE
Chain of Benomyl/methotrexate resistance protein (P28873 whole entry): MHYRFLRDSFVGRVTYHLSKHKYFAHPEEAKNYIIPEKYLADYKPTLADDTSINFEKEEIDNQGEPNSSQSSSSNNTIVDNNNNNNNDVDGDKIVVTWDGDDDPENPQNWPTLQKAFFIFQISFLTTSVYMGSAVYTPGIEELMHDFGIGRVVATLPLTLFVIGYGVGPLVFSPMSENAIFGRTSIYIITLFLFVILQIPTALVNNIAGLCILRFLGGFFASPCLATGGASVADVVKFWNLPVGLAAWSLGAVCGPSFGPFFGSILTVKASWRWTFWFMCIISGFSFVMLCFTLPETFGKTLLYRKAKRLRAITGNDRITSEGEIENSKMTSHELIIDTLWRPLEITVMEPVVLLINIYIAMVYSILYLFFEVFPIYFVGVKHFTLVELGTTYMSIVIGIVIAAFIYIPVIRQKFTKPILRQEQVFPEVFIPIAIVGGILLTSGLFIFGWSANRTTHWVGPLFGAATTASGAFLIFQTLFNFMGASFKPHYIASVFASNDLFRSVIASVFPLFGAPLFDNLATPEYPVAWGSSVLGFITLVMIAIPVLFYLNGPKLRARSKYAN
Chain of Bcl-2-related protein A1 (Q07440 whole entry): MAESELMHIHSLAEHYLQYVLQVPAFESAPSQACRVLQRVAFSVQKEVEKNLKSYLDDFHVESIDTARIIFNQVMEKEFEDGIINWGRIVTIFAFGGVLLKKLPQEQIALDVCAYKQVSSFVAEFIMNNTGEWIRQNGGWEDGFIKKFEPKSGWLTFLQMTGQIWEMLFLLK

SMILES: O=C(C[n+]1cc(-c2ccc(Cl)c(Cl)c2)n2c1CCC2)N1c2ccccc2Sc2ccccc21
EC50 [5]: > 150 µM (inactive)
EC50 [6]: 1.1 µM (active)
EC50 [7]: 0.845 µM (active)
EC50 [8]: > 60 µM (not active)
EC50 [9]: 1.88 µM (active)
IC50 [10]: > 20 µM (inactive)
EC50 [11]: 0.014 µM (active)

SMILES: CN(C)CCCn1c(SCC(=O)Nc2nc(-c3cccc(Br)c3)cs2)nc2ccccc2c1=O
EC50 [12]: 3.17 µM (active)
EC50 [7]: 1.66 µM (active)
EC50 [8]: 4.52 µM (active)
EC50 [13]: 6.99 µM (active)
IC50 [14]: 13.1 µM (active)
IC50 [10]: 5.58 µM (active)
IC50 [15]: 5.29 µM (active)
AC50 [16]: 13.9 µM (active)
AC50 [17]: 95.9 µM (active)

SMILES: Cn1cnc([N+](=O)[O-])c1S(=O)(=O)Oc1cccc2ccccc12
IC50 [18]: 3.4 µM (active)

The remaining lines, values ahead:

IC50 [1]: 4.96 µM (active)
SMILES: COc1cc2cc(C(c3nnnn3Cc3ccc(F)cc3)N3CCCCCC3)c(O)nc2cc1OC (stereo not given)

IC50 [2]: 3.15 µM (active)
IC50 [3]: 26.5 µM (inactive)
IC50 [4]: 1.22 µM (active)
SMILES: Cc1nn(C)cc1/C=N/NC(=S)Nc1ccccc1

IC50 [19]: 2.3 µM (active)
IC50 [20]: 16.2 µM (active)
IC50 [21]: 8.74 µM (active)
IC50 [22]: 12.9 µM (active)
SMILES: O=C(CCN1C(=O)/C(=C/c2ccc3c(c2)OCO3)SC1=S)Nc1ccc(C(=O)O)cc1
